This note sets out measurements from paper PMC7650666, “Computational and In Vitro Investigation of (-)-Epicatechin and Proanthocyanidin B2 as Inhibitors of Human Matrix Metalloproteinase 1” (Biomolecules, 2020).

The target of experiment [1] is T1, Matrix metalloproteinase 1 (MMP-1) (Homo sapiens, UniProt P03956).
T1 construct: gene MMP1; MMP-1 secreted by human fibroblast (Detroit551) cells, 54 kDa band
T1 sequence (P03956 20-469): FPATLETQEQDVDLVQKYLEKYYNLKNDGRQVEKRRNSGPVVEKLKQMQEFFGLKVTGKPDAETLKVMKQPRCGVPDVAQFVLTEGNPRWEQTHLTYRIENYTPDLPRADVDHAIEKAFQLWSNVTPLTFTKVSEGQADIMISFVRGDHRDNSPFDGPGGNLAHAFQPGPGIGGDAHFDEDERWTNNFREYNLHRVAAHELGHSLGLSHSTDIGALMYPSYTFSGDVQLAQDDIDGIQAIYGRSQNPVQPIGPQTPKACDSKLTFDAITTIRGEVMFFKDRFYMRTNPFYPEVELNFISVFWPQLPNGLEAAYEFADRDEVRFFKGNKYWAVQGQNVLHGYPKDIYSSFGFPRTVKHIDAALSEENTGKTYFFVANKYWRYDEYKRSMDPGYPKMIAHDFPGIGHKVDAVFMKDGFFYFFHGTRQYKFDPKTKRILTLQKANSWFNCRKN
Description: casein zymography of protein from fibroblast culture medium preincubated with compound (reference inhibitor). The experiment is classed as cell-based. The settings on record: read-out: % inhibition at 1000 μg/mL.

Experiment [2] concerns the target T1, Matrix metalloproteinase 1 (MMP-1). The experiment is described as follows: casein zymography of protein from fibroblast culture medium preincubated with compound. The experiment is classed as cell-based. The settings on record: read-out: % inhibition at 1000 μg/mL.

As for `O=C(O[C@@H]1Cc2c(O)cc(O)cc2O[C@@H]1c1cc(O)c(O)c(O)c1)c1cc(O)c(O)c(O)c1` [epigallocatechin gallate], the inhibition at 1000 µg/mL in experiment [1] was found to be 75.6%.
For the molecule `Oc1cc(O)c2c(c1)O[C@H](c1ccc(O)c(O)c1)[C@H](O)[C@H]2c1c(O)cc(O)c2c1O[C@H](c1ccc(O)c(O)c1)[C@H](O)C2` [proanthocyanidin B2], the inhibition at 1000 µg/mL in experiment [2] amounted to 43.4%.
On the same count and under the same terms, the value for `Oc1cc(O)c2c(c1)O[C@H](c1ccc(O)c(O)c1)[C@H](O)C2` [(-)-epicatechin] was 69.2%.
